Assay results reported in EP0343830A2, “Ring-substituted 2-amino-1,2,3,4-tetrahydronaphthalenes” (ELI LILLY AND COMPANY, priority 1988, dated 1989).
Counter-ions that a name gives are not always drawn.

molecular target: T1, 5HT UPTAKE (Rattus norvegicus, UniProt P31652); assay: Inhibition of synaptosomal uptake of 3H-serotonin (3H-5HT) in vitro, rat cerebral cortex synaptosomes; type: biochemical, Sprague-Dawley rats; settings: concentration needed to inhibit the uptake of 3H-5HT by 50%; rat cortical synaptosomes, 37°C, 5 min, 50 nM 3H-5HT
T1 construct: Crude synaptosomal preparations were isolated after differential centrifugation; from tissue; host or cells: rat cerebral cortex, crude synaptosomes
Description: This general procedure is set forth in Wong et al., Drug Development Research 6:397-403 (1985).
Male Sprague-Dawley rats (110-150 g) from Harlan Industries (Cumberland, IN) were fed Purina Chow ad libitum for at least 3 days before being used in the studies. Rats were killed by decaptiation. Whole brains were removed and dissected. Cerebral cortex was homogenized in 9 volumes of a medium containing 0.32 M sucrose and 10 mM glucose. Crude synaptosomal preparations were isolated after differential centrifugation at 1,000 g for 10 min. and 17,000 g for 28 min. The final pellets were suspended in the same medium and kept in ice until use within the same day.
Synaptosomal uptake of ³H-serotonin (³H-5-hydroxytryptamine, ³H-5HT) was determined as follows: Cortical synaptosomes (equivalent to 1 mg of protein) were incubated at 37°C for 5 min in 1 ml of Krebs-bicarbonate medium containing also 10 mM glucose, […], 1 mM ascorbic acid, 0.17 mM EDTA and 50 nM ³H-5HT. The reaction mixture was immediately diluted with 2 ml of ice-chilled Krebs-bicarbonate buffer and filtered under vacuum with a cell harvester (Brandel, Gaithersburg, MD). Filters were rinsed twice with approximately 5 ml of ice-chilled 0.9% saline and were transferred to a counting vial containing 10 ml of scintillation fluid (PCS, Amersham, Arlington Heights, IL). Radioactivity was measured by a liquid scintillation spectrophotometer. Accumulation of ³H-5HT at 4°C represented the background and was subtracted from all samples.
The results of the evaluation of various compounds of the present invention are set forth below in Table I. In Table I, the first column provides the Example Number of the compound evaluated; the next 7 columns identify the structure of the compound evaluated when taken with the formula set forth in the heading; the next-succeeding column identifies the salt form of the compound evaluated; and the final column provides the amount of the test compound expressed in nanomolar concentration needed to inhibit the uptake of ³H-5HT by 50%, and is indicated in Table I as IC₅₀. Numbers in parentheses, if any, represent percent inhibition at 1000 nM.

T1 sequence (P31652 whole entry): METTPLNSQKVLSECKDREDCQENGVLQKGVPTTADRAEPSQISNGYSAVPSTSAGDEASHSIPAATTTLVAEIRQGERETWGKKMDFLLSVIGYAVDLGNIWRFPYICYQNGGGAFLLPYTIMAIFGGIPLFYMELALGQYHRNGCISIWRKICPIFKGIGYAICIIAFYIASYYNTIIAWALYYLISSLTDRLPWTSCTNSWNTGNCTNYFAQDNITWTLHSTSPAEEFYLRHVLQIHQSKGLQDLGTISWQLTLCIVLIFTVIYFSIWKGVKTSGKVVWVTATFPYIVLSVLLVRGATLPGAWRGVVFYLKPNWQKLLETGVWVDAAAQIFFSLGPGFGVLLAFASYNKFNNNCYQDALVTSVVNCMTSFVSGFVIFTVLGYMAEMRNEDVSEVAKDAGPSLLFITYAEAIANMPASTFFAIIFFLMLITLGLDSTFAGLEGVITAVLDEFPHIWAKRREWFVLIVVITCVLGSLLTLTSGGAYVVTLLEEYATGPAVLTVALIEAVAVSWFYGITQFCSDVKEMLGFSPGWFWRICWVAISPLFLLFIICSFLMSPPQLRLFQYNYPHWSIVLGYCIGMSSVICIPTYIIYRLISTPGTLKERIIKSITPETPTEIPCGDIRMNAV

Q: How did the IC50 turn out when C[C@@H]1c2ccc(Cl)cc2CC[C@@H]1N1CCNCC1 (racemic) [Example 33, cis-1-Methyl-2-piperazinyl-6-chloro-1,2,3,4-tetrahydronaphthalene dihydrochloride] was run?
A: 12 nM

Q: How did the IC50 turn out when COc1ccc(Br)c2c1C(C)C(N1CCNCC1)CC2 (single isomer, unassigned) [Example 19, 1-Methyl-2-piperazinyl-5-bromo-8-methoxy-1,2,3,4-tetrahydronaphthalene dihydrochloride] was run?
A: 70 nM

Q: With C[C@@H]1c2ccc(Cl)cc2CC[C@@H]1N1CCNCC1 (single isomer, unassigned; (+)) [Example 33a, (+)cis-1-Methyl-2-piperazinyl-6-chloro-1,2,3,4-tetrahydronaphthalene dihydrochloride dihydrate] as the compound, how does the IC50 read?
A: 84 nM

Q: Which IC50 does the source give for C[C@@H]1c2ccc(Cl)cc2CC[C@@H]1N1CCNCC1 (single isomer, unassigned; (-)) [Example 33b, (-)cis-1-Methyl-2-piperazinyl-6-chloro-1,2,3,4-tetrahydronaphthalene dihydrochloride dihydrate] here?
A: 8.2 nM

Q: Which IC50 does the source give for COc1cccc2c1CC(N1CCN(C)CC1)CC2 (stereo not shown) [Example 1, 2-(Methylpiperazinyl)-8-methoxy-1,2,3,4-tetrahydronaphthalene dihydrochloride] here?
A: 57 nM

Q: How did the IC50 turn out when COc1cccc2c1CC(N1CCNCC1)CC2 (stereo not shown) [Example 2, 2-Piperazinyl-8-methoxy-1,2,3,4-tetrahydronaphthalene dihydrochloride] was run?
A: 90 nM

Q: How did the IC50 turn out when Clc1cccc2c1CC(N1CCNCC1)CC2 (stereo not shown) [Example 3, 2-Piperazinyl-8-chloro-1,2,3,4-tetrahydronaphthalene dimaleate] was run?
A: 83 nM

Q: With CN1CCN(C2CCc3cccc(Cl)c3C2)CC1 (stereo not shown) [Example 4, 2-(N-methylpiperazinyl)-8-chloro-1,2,3,4-tetrahydronaphthalene dimaleate] as the compound, how does the IC50 read?
A: 35 nM

Q: With Clc1cccc2c1CC(N1CCCNCC1)CC2 (stereo not shown) [Example 5, 2-(Homopiperazinyl)-8-chloro-1,2,3,4-tetrahydronaphthalene dimaleate] as the compound, how does the IC50 read?
A: 260 nM

Q: How did the IC50 turn out when CN1CCN(C2CCc3cccc(F)c3C2)CC1 (stereo not shown) [Example 6, 2-(N-methylpiperazinyl)-8-fluoro-1,2,3,4-tetrahydronaphthalene dimaleate] was run?
A: 180 nM

Q: For Cc1cccc2c1CC(N1CCN(C)CC1)CC2 (stereo not shown) [Example 7, 2-(N-Methylpiperazinyl)-8-methyl-1,2,3,4-tetrahydronaphthalene dihydrochloride], which IC50 is on record?
A: 87 nM

Q: With Cc1ccc(C)c2c1CCC(N1CCN(C)CC1)C2 (stereo not shown) [Example 8, 2-(N-Methylpiperazinyl)-5,8-dimethyl-1,2,3,4-tetrahydronaphthalene dimaleate] as the compound, how does the IC50 read?
A: 140 nM

Q: Which IC50 does the source give for CN1CCN(C2CCc3cccc(Br)c3C2)CC1 (stereo not shown) [Example 9, 2-(N-Methylpiperazinyl)-8-bromo-1,2,3,4-tetrahydronaphthalene dimaleate] here?
A: 90 nM

Q: For COc1ccc(OC)c2c1CCC(N1CCN(C)CC1)C2 (stereo not shown) [Example 10, 2-(N-methylpiperazinyl)-5,8-dimethoxy-1,2,3,4-tetrahydronaphthalene dihydrochloride], which IC50 is on record?
A: 100 nM

Q: How did the IC50 turn out when CC1c2c(Cl)cccc2CCC1N1CCN(C)CC1 (stereo not shown) [Example 11, 1-Methyl-2-(N-methylpiperazinyl)-8-chloro-1,2,3,4-tetrahydronaphthalene dimaleate] was run?
A: 650 nM

Q: CC1c2c(Cl)cccc2CCC1N1CCNCC1 (stereo not shown) [Example 12, 1-Methyl-2-piperazinyl-8-chloro-1,2,3,4-tetrahydronaphthalene dihydrochloride] was tested. Which IC50 did it give?
A: 270 nM

Q: Which IC50 does the source give for CN1CCN(C2CCc3cccc(O)c3C2)CC1 (stereo not shown) [Example 14, 2-(N-Methylpiperazinyl)-8-hydroxy-1,2,3,4-tetrahydronaphthalene dihydrobromide] here?
A: 50 nM

Q: With COc1ccc(Br)c2c1CC(N1CCN(C)CC1)CC2 (stereo not shown) [Example 15, 2-(N-Methylpiperazinyl)-5-bromo-8-methoxy-1,2,3,4-tetrahydronaphthalene dihydrochloride] as the compound, how does the IC50 read?
A: 12 nM

Q: How did the IC50 turn out when COc1ccc(Br)c2c1CC(N1CCNCC1)CC2 (stereo not shown) [Example 16, 2-Piperazinyl-5-bromo-8-methoxy-1,2,3,4-tetrahydronaphthalene dihydrochloride] was run?
A: 3.7 nM

Q: Cc1ccc(Br)c2c1CC(N1CCN(C)CC1)CC2 (stereo not shown) [Example 17, 2-(N-methylpiperazinyl)-5-bromo-8-methyl-1,2,3,4-tetrahydronaphthalene dihydrochloride] was tested. Which IC50 did it give?
A: 17 nM

Q: How did the IC50 turn out when CSc1cccc2c1CC(N1CCN(C)CC1)CC2 (stereo not shown) [Example 18, 2-(N-methylpiperazinyl)-8-methylthio-1,2,3,4-tetrahydronaphthalene dimaleate] was run?
A: 40 nM

Q: With COc1ccc(Cl)c2c1CC(N1CCN(C)CC1)CC2 (stereo not shown) [Example 21, 2-(N-methylpiperazinyl)-5-chloro-8-methoxy-1,2,3,4-tetrahydronaphthalene dihydrochloride] as the compound, how does the IC50 read?
A: 16 nM

Q: COc1ccc(I)c2c1CC(N1CCN(C)CC1)CC2 (stereo not shown) [Example 22, 2-(N-methylpiperazinyl)-5-iodo-8-methoxy-1,2,3,4-tetrahydronaphthalene dihydrochloride] was tested. Which IC50 did it give?
A: 23 nM

Q: COc1ccc(C=O)c2c1CC(N1CCN(C)CC1)CC2 (stereo not shown) [Example 23, 2-(N-methylpiperazinyl)-5-formyl-8-methoxy-1,2,3,4-tetrahydronaphthalene dihydrochloride hydrate] was tested. Which IC50 did it give?
A: 10 nM

Q: Which IC50 does the source give for COc1ccc(C#N)c2c1CC(N1CCN(C)CC1)CC2 (stereo not shown) [Example 24, 2-(N-methylpiperazinyl)-5-cyano-8-methoxy-1,2,3,4-tetrahydronaphthalene dihydrochloride] here?
A: 12 nM

Q: For Clc1ccc2c(c1)CCC(N1CCNCC1)C2 (stereo not shown) [Example 25, 2-Piperazinyl-6-chloro-1,2,3,4-tetrahydronaphthalene dihydrochloride], which IC50 is on record?
A: 100 nM

Q: For Brc1ccc2c(c1)CCC(N1CCNCC1)C2 (stereo not shown) [Example 26, 2-Piperazinyl-6-bromo-1,2,3,4-tetrahydronaphthalene dihydrochloride], which IC50 is on record?
A: 350 nM

Q: How did the IC50 turn out when Fc1ccc2c(c1)CCC(N1CCNCC1)C2 (stereo not shown) [Example 27, 2-Piperazinyl-6-fluoro-1,2,3,4-tetrahydronaphthalene dihydrochloride] was run?
A: 340 nM

Q: With Cc1ccc2c(c1)CCC(N1CCNCC1)C2 (stereo not shown) [Example 28, 2-Piperazinyl-6-methyl-1,2,3,4-tetrahydronaphthalene dihydrochloride] as the compound, how does the IC50 read?
A: 210 nM

Q: COc1ccc2c(c1)CCC(N1CCNCC1)C2 (stereo not shown) [Example 29, 2-Piperazinyl-6-methoxy-1,2,3,4-tetrahydronaphthalene dihydrochloride] was tested. Which IC50 did it give?
A: 750 nM

Q: Which IC50 does the source give for Clc1cc2c(cc1Cl)CC(N1CCNCC1)CC2 (stereo not shown) [Example 30, 2-Piperazinyl-6,7-dichloro-1,2,3,4-tetrahydronaphthalene dihydrochloride] here?
A: 115 nM

Q: How did the IC50 turn out when CN1CCN(C2CCc3cc(Br)ccc3C2)CC1 (stereo not shown) [Example 31, 2-(N-Methylpiperazinyl)-6-bromo-1,2,3,4-tetrahydronaphthalene dihydrochloride] was run?
A: 520 nM

Q: CN1CCN(C2CCc3cc(Cl)ccc3C2)CC1 (stereo not shown) [Example 32, 2-(N-Methylpiperazinyl)-6-chloro-1,2,3,4-tetrahydronaphthalene dihydrochloride] was tested. Which IC50 did it give?
A: 450 nM

Q: For CC1c2ccccc2CCC1N1CCNCC1 (stereo not shown) [Example 34, 1-Methyl-2-piperazinyl-1,2,3,4-tetrahydronaphthalene dihydrochloride], which IC50 is on record?
A: 59 nM

Q: With CC1c2ccccc2CCC1N1CCN(C)CC1 (stereo not shown) [Example 35, 1-Methyl-2-(N-methylpiperazinyl-1,2,3,4-tetrahydronaphthalenedihydrochloride] as the compound, how does the IC50 read?
A: 490 nM

Q: With Clc1ccc2c(c1)CCC(N1CCCNCC1)C2 (stereo not shown) [Example 36, 2-Homopiperazinyl-6-chloro-1,2,3,4-tetrahydronaphthalene dihydrochloride] as the compound, how does the IC50 read?
A: 240 nM

Q: How did the IC50 turn out when Oc1ccc2c(c1)CCC(N1CCNCC1)C2 (stereo not shown) [Example 37, 2-Piperazinyl-6-hydroxy-1,2,3,4-tetrahydronaphthalene dihydrobromide] was run?
A: 1000 nM

Q: With COc1ccc(C(F)F)c2c1CC(N1CCN(C)CC1)CC2 (stereo not shown) [Example 38, 2-(N-Methylpiperazinyl)-5-difluoromethyl-8-methoxy-1,2,3,4-tetrahydronaphthalene dimaleate] as the compound, how does the IC50 read?
A: 23 nM

Q: Which IC50 does the source give for CSc1ccc2c(c1)CCC(N1CCN(C)CC1)C2 (stereo not shown) [Example 39, 2-(N-Methylpiperizinyl)-6-methylthio-1,2,3,4-tetrahydronaphthalene dihydrochloride] here?
A: 434 nM

Q: CC1c2ccc(Br)cc2CCC1N1CCNCC1 (stereo not shown) [Example 40, 1-Methyl-2-piperazinyl-6-bromo-1,2,3,4-tetrahydronaphthalene dihydrochloride] was tested. Which IC50 did it give?
A: 34 nM
